Test results taken from patent US20230398130A1, “METHODS AND COMPOSITIONS FOR DIFFERENTIATING STEM CELLS” (Massachusetts Institute of Technology, priority 2020, published 2023).

Experiments:
[1] = tested on: ISC-enriched organoids; assay: Primary screen, 384-well 2.5-D organoid differentiation (ENR+CD, 6 days): basal lysozyme secretion (LYZ.NS); assay type: cell-based, murine; conditions: for Dose.FC.LYZ.NS: FC vs plate median; for Dose.FC.LYZ.NS (log 2 fold change): vs plate median
Text: (§1) High-throughput screening.

[2] = tested on: ISC-enriched organoids; assay: Primary screen, 384-well 2.5-D organoid differentiation (ENR+CD, 6 days): carbachol-induced lysozyme secretion (LYZ.S); assay type: cell-based, murine; conditions: primary screen; for Dose.FC.LYZ.S: FC vs plate median; for Dose.FC.LYZ.S (log 2 fold change): vs plate median
Text: as §1

[3] = tested on: ISC-enriched organoids; assay: Primary screen, 384-well 2.5-D organoid differentiation (ENR+CD, 6 days, Target Selective Inhibitor Library, vs whole-plate median): ATP (CellTiter-Glo 3D, CTG); conditions: for Dose.FC.CTG: FC vs plate median; for Dose.FC.CTG (log 2 fold change): vs plate median
[4] = Dose 0.08 uM, primary screen, standard z score
[5] = Dose 0.40 uM, primary screen, standard z score
[6] = Dose 2.00 uM, primary screen, standard z score
[7] = Dose 10.00 uM, primary screen, standard z score
[8] = Dose 0.08 uM, standard z score of FC
[9] = Dose 0.40 uM, standard z score of FC
[10] = Dose 2.00 uM, standard z score of FC
[11] = Dose 10.00 uM, standard z score of FC
[12] = primary screen, dose 0.08 uM, ENR+CD 6 days
[13] = primary screen, dose 0.08 uM, standard z score of FC
[14] = primary screen, dose 0.40 uM, ENR+CD 6 days
[15] = primary screen, dose 0.40 uM, standard z score of FC
[16] = primary screen, dose 2.00 uM, ENR+CD 6 days
[17] = primary screen, dose 2.00 uM, standard z score of FC
[18] = primary screen, dose 10.00 uM, ENR+CD 6 days
[19] = primary screen, dose 10.00 uM, standard z score of FC

CC(C)c1onc(-c2c(Cl)cccc2Cl)c1COc1ccc(/C=C/c2cccc(C(=O)O)c2)c(Cl)c1 [GW4064]
Dose.FC.LYZ.NS ([1]; Dose 0.08 uM, primary screen): 0.170 log 2 fold change | Z.LYZ.NS [1, 4]: 1.476 | Dose.FC.LYZ.NS ([1]; Dose 0.40 uM, primary screen): −0.022 log 2 fold change | Z.LYZ.NS [1, 5]: −0.194 | Dose.FC.LYZ.NS ([1]; Dose 2.00 uM, primary screen): 0.022 log 2 fold change | Z.LYZ.NS [1, 6]: 0.196 | Dose.FC.LYZ.NS ([1]; Dose 10.00 uM, primary screen): −0.059 log 2 fold change | Z.LYZ.NS [1, 7]: −0.516 | Dose.FC.LYZ.S ([2]; Dose 0.08 uM): 0.028 log 2 fold change | Dose.FC.LYZ.S ([2]; Dose 0.40 uM): 0.097 log 2 fold change | Dose.FC.LYZ.S ([2]; Dose 2.00 uM): 0.000 log 2 fold change | Dose.FC.LYZ.S ([2]; Dose 10.00 uM): −0.071 log 2 fold change | Dose.FC.CTG ([3]; Dose 0.08 uM, primary screen): −0.134 log 2 fold change | Z.CTG [3, 4]: −0.320 | Dose.FC.CTG ([3]; Dose 0.40 uM, primary screen): 0.140 log 2 fold change | Z.CTG [3, 5]: 0.334 | Dose.FC.CTG ([3]; Dose 2.00 uM, primary screen): −0.145 log 2 fold change | Z.CTG [3, 6]: −0.346 | Dose.FC.CTG ([3]; Dose 10.00 uM, primary screen): −0.157 log 2 fold change | Z.CTG [3, 7]: −0.375

CCCC(C)NC(=O)c1ccc(Cl)c(Cl)c1 (centres unmarked) [NSC 405020]
Dose.FC.LYZ.NS ([1]; Dose 0.08 uM, primary screen): 0.008 log 2 fold change | Z.LYZ.NS [1, 8]: 0.071 | Dose.FC.LYZ.NS ([1]; Dose 0.40 uM, primary screen): −0.028 log 2 fold change | Z.LYZ.NS [1, 9]: −0.246 | Dose.FC.LYZ.NS ([1]; Dose 2.00 uM, primary screen): 0.018 log 2 fold change | Z.LYZ.NS [1, 10]: 0.160 | Dose.FC.LYZ.NS ([1]; Dose 10.00 uM, primary screen): −0.065 log 2 fold change | Z.LYZ.NS [1, 11]: −0.570 | Dose.FC.LYZ.S ([2]; Dose 0.08 uM): 0.014 log 2 fold change | Dose.FC.LYZ.S ([2]; Dose 0.40 uM): 0.093 log 2 fold change | Dose.FC.LYZ.S ([2]; Dose 2.00 uM): 0.002 log 2 fold change | Dose.FC.LYZ.S ([2]; Dose 10.00 uM): −0.061 log 2 fold change | Dose.FC.CTG ([3]; Dose 0.08 uM, primary screen): −0.059 log 2 fold change | Z.CTG [3, 8]: −0.140 | Dose.FC.CTG ([3]; Dose 0.40 uM, primary screen): −0.071 log 2 fold change | Z.CTG [3, 9]: −0.170 | Dose.FC.CTG ([3]; Dose 2.00 uM, primary screen): −0.059 log 2 fold change | Z.CTG [3, 10]: −0.141 | Dose.FC.CTG ([3]; Dose 10.00 uM, primary screen): −0.058 log 2 fold change | Z.CTG [3, 11]: −0.138

SN-38
Z.LYZ.NS (standard z score) ([1]; Dose 0.08 uM, primary screen): −2.391 | Dose.FC.LYZ.NS (log 2 fold change) ([1]; Dose 0.08 uM, primary screen): −0.275 | Z.LYZ.NS (standard z score) ([1]; Dose 0.40 uM, primary screen): −2.505 | Dose.FC.LYZ.NS (log 2 fold change) ([1]; Dose 0.40 uM, primary screen): −0.288 | Z.LYZ.NS (standard z score) ([1]; Dose 2.00 uM, primary screen): −2.655 | Dose.FC.LYZ.NS (log 2 fold change) ([1]; Dose 2.00 uM, primary screen): −0.305 | Z.LYZ.NS (standard z score) ([1]; Dose 10.00 uM, primary screen): −2.606 | Dose.FC.LYZ.NS (log 2 fold change) ([1]; Dose 10.00 uM, primary screen): −0.299 | Dose.FC.LYZ.S (log 2 fold change) ([2]; Dose 0.08 uM): −0.419 | Dose.FC.LYZ.S (log 2 fold change) ([2]; Dose 0.40 uM): −0.402 | Dose.FC.LYZ.S (log 2 fold change) ([2]; Dose 2.00 uM): −0.391 | Dose.FC.LYZ.S (log 2 fold change) ([2]; Dose 10.00 uM): −0.404 | Z.CTG (standard z score) ([3]; Dose 0.08 uM, primary screen): −1.720 | Dose.FC.CTG (log 2 fold change) ([3]; Dose 0.08 uM, primary screen): −0.720 | Z.CTG (standard z score) ([3]; Dose 0.40 uM, primary screen): −2.606 | Dose.FC.CTG (log 2 fold change) ([3]; Dose 0.40 uM, primary screen): −1.091 | Z.CTG (standard z score) ([3]; Dose 2.00 uM, primary screen): −2.929 | Dose.FC.CTG (log 2 fold change) ([3]; Dose 2.00 uM, primary screen): −1.226 | Z.CTG (standard z score) ([3]; Dose 10.00 uM, primary screen): −2.785 | Dose.FC.CTG (log 2 fold change) ([3]; Dose 10.00 uM, primary screen): −1.166

COc1cc(N2CCC(N)CC2)ccc1Nc1ncc(Cl)c(-c2c[nH]c3ccccc23)n1 [AZD3463]
Dose.FC.LYZ.NS [1, 12]: −0.147 log 2 fold change | Z.LYZ.NS [1, 13]: −1.279 | Dose.FC.LYZ.NS [1, 14]: −0.190 log 2 fold change | Z.LYZ.NS [1, 15]: −1.652 | Dose.FC.LYZ.NS [1, 16]: −0.232 log 2 fold change | Z.LYZ.NS [1, 17]: −2.021 | Dose.FC.LYZ.NS [1, 18]: −0.209 log 2 fold change | Z.LYZ.NS [1, 19]: −1.820 | Dose.FC.LYZ.S ([2]; dose 0.08 uM, ENR+CD 6 days): −0.199 log 2 fold change | Dose.FC.LYZ.S ([2]; dose 0.40 uM, ENR+CD 6 days): −0.293 log 2 fold change | Dose.FC.LYZ.S ([2]; dose 2.00 uM, ENR+CD 6 days): −0.315 log 2 fold change | Dose.FC.LYZ.S ([2]; dose 10.00 uM, ENR+CD 6 days): −0.328 log 2 fold change | Dose.FC.CTG [3, 12]: −0.275 log 2 fold change | Z.CTG [3, 13]: −0.657 | Dose.FC.CTG [3, 14]: −0.341 log 2 fold change | Z.CTG [3, 15]: −0.814 | Dose.FC.CTG [3, 16]: −0.772 log 2 fold change | Z.CTG [3, 17]: −1.843 | Dose.FC.CTG [3, 18]: −0.960 log 2 fold change | Z.CTG [3, 19]: −2.293
